Among the data in US20250170136A1, “1,2,4-TRIAZIN-3(2H)-ONE COMPOUNDS FOR THE TREATMENT OF HYPERPROLIFERATIVE DISEASES” (BAYER AKTIENGESELLSCHAFT, priority 2019, published 2025) are IC50 and CLblood values, retold here.

As usually defined, the pIC50 is −log10 of the IC50, conventionally taken in molar units.

pIC50: −log10 of the molar value.

The subject of one series is COV318 cells. The series is described as follows: Cell proliferation measurement (CellTiter-Glo, 72 h). In kind it is cell-based. To be noted: Homo sapiens, anti-proliferation, COV318, Ovarian cancer, maximum concentration 30 μM. How it is done: (§1) The antiproliferative activity of the compounds of the general formula (I) was examined in vitro in human cancer cells. […] After 24 h, cells on one plate (0 h plate) were treated with 30 μl/cavity of CTG solution (Promega Cell Titer Glo (catalogue #G755B and G756B)) and incubated at room temperature for 10 min, and luminescence was measured by means of a VICTOR V (Perkin Elmer), in order to determine cell viability on commencement of treatment. The cells on the test plate were treated with the compounds of the general formula (I) as and incubated at 37° C. for 72 h. The compounds were added to the cells by means of an HP D300 digital dispenser in a 10-step 2,5-fold dilution series generally starting at a maximum final drug concentration of 100 nM, or 30 μM in the case of COV318. As control, the cells were treated with vehicle (DMSO at 0.3% final concentration). After 72 h, the cells were treated with 30 μl/cavity of CTG solution (Promega Cell Titer Glo (catalogue #G755B and G756B)) and incubated at room temperature for 10 min, and luminescence was measured by means of a VICTOR V (Perkin Elmer), in order to determine cell viability at the end of treatment. The percentage effect on cell growth and the IC50 derived therefrom were determined for each test substance using the values from the 0 h plate (=maximum inhibition) and the DMSO control (=minimum inhibition). The IC50 values were calculated using a 4-parameter fit.
Background: ATP-based viability assays read luminescence as a measure of living cells.

The test system of the next series is DBTRG05MG cells. The description is as above. The note with it: Homo sapiens, DBTRG-05MG, anti-proliferation, Brain (Glioblastoma). Type of series: cell-based. How it is done:
as §1

A further series concerns DKMG cells. Described as above. Type of series: cell-based. To be noted: Homo sapiens, anti-proliferation, Brain (Glioblastoma). As to the method:
as §1

The subject of a further series is GAMG cells. The description is as above. In kind it is cell-based. The note with it: Homo sapiens, anti-proliferation, Brain (Glioblastoma). As to the method:
as §1

A further series has as its system IGR37 cells. The series is described as above. Type of series: cell-based. To be noted: Homo sapiens, IGR-37, anti-proliferation, IGR37, Melanoma. As to the method: as §1
Another series concerns LN229 cells. The series is described as above. In kind it is cell-based. The note with it: Homo sapiens, LN-229, anti-proliferation, LN229, Brain (Glioblastoma). How it is done:
as §1

The next series deals with SK-MEL-3 cells. The series is described as above. Type of series: cell-based. The note with it: Homo sapiens, SK-MEL3; anti-proliferation, SK-MEL-3, 72 h. How it is done: as §1
The subject of a further series is SW1783 cells. The series is described as above. To be noted: Homo sapiens, anti-proliferation, SW1783, Brain (Anaplastic astrocytoma). In kind it is cell-based. As to the method: as §1
A further series concerns T98G cells. Described as above. The note with it: Homo sapiens, anti-proliferation, Brain (Glioblastoma). Type of series: cell-based. How it is done: as §1
The subject of another series is U-251MG cells. Described as above. In kind it is cell-based. The note with it: Homo sapiens, anti-proliferation, Brain (Glioblastoma: Astrocytoma). How it is done:
as §1

Another series relates to YKG1 cells. Described as above. Type of series: cell-based. The note with it: Homo sapiens, YKG-1, anti-proliferation, YKG1, Brain (Glioblastoma). As to the method:
as §1

In the next series the target is human full length PDE3A (Homo sapiens (Human), UniProt Q14432). The series is described as follows: PDE3A enzyme inhibition (3H-cAMP Scintillation Proximity Assay). In kind it is biochemical. The note with it: Sf9 cell extract, 60 min room temperature. As to the method:
The commercially available 3H-cAMP Scintillation Proximity Assay (SPA, Perkin Elmer) system was used for enzyme inhibition studies. For the determination of the in vitro effect of example compounds on the PDE3A reactions 2 μl of the respective example compound solution in DMSO (serial dilutions) were placed in wells of microtiter plates (Isoplate-96/200W; Perkin Elmer). 50 μl of a dilution of PDE3A cell extract from Sf9 cells overexpressing human full length PDE3A (SB Drug Discovery, UK) in buffer A (50 mM Tris/HCl pH 7.5, 8.3 mM MgCl2, 1.7 mM EDTA, 0.2% BSA) was added. The dilution of the PDE3A cell extract was chosen such that the reaction kinetics was linear and less than 70% of the substrate was consumed (typical dilution 1:5000). The reaction was started by addition of 50 μl (0.025 μCi) of 1:2000 in buffer A w/o BSA diluted substrate [8-3H]adenosine 3′, 5′-cyclic phosphate (1 μCi/μl; Perkin Elmer). After incubation at room temperature for 60 min, the reaction was stopped by addition of 25 μl of a suspension containing 18 mg/ml yttrium scintillation proximity beads (Perkin Elmer) in water. The microtiter plates were sealed and measured in a Microbeta scintillation counter (PerkinElmer Wallac). IC50 values were determined from sigmoidal curves by plotting percentage PDE3A activity vs log compound concentration.

Series [1] is described as follows: In vivo pharmacokinetics in mice (i.v.). The arrangement: species or system female CD-1 mice. The note with it: Mouse/female/CD1, 0.5 mg/kg i.v., PEG400 60% + Water 35% + EtOH 5%. How it is done:
For in vivo pharmacokinetic experiments test compounds were administered to female CD-1 mice, male Wistar rats, Beagle dogs or Cynomolgus monkeys intravenously at doses of 0.3 to 1 mg/kg formulated as solutions using solubilizers such as PEG400 in well-tolerated amounts.
Studies may also have been performed as cassette administrations of up to 3 compounds given together simultaneously in low doses.
For pharmacokinetics after intravenous administration test compounds were given in the female mice and male rat as i.v. bolus and in dogs and monkeys as short term infusion (15 min). Blood samples were taken e.g. at 2 min, 8 min, 15 min, 30 min, 45 min, 1 h, 2 h, 4 h, 6 h, 8 h and 24 h after dosing from the vena jugularis (mouse, rat) or vena saphena (dog, monkey). […] PK parameters were calculated by non-compartmental analysis using a PK calculation software (e.g. Phoenix WinNonlin®, Certara USA, Inc.).
PK parameters derived from concentration-time profiles after i.v.: CLplasma (in L/kg/h): Total plasma clearance of test compound calculated by dose (in μg/kg) divided by area under the concentration-time curve from t=0 h to infinity (extrapolated) (AUCinf in μg*h/L); CLblood: Total blood clearance of test compound: CLplasma*Cp/Cb (in L/kg/h) with Cp/Cb being the ratio of test compound concentrations in plasma and blood. […]

human full length PDE3A, sequence (Q14432 whole entry): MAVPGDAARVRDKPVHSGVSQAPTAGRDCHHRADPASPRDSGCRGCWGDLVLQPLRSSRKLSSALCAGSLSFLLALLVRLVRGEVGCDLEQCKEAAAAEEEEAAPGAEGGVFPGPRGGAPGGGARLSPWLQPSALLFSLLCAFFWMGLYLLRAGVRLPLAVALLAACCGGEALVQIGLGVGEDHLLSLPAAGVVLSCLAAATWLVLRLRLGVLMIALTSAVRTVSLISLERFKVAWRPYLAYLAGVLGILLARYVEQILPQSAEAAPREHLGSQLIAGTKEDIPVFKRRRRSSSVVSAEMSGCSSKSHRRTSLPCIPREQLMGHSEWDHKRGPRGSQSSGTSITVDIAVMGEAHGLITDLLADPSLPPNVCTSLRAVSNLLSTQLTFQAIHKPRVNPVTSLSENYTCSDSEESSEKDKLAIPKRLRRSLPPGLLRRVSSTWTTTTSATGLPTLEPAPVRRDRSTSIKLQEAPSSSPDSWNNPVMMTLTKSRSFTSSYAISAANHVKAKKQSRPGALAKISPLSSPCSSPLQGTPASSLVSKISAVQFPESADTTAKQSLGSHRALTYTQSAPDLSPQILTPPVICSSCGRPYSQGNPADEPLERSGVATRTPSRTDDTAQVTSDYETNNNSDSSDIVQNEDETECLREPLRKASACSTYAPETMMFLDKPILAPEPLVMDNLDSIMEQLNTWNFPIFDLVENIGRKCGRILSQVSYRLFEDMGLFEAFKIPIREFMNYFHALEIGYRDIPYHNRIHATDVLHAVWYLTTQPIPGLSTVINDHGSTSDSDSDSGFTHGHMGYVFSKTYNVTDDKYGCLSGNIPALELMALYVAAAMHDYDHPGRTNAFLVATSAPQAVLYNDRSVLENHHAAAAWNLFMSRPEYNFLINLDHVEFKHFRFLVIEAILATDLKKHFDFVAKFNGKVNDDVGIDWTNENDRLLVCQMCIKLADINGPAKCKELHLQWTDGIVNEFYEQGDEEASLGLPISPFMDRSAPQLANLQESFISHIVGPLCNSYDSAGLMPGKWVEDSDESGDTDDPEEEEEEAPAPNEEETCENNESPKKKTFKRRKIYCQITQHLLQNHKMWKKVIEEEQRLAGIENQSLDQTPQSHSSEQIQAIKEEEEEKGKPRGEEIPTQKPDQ

For `C[C@@H]1NC(=O)NN=C1c1ccc(-n2ccc(C(F)(F)F)n2)c(C(F)(F)F)c1` [Example 1, (5S)-5-methyl-6-{3-(trifluoromethyl)-4-[3-(trifluoromethyl)-1H-pyrazol-1-yl]phenyl}-4,5-dihydro-1,2,4-triazin-3(2H)-one], the negative logarithm of the IC50 (pIC50) is 5.05 with COV318 cells; 7.52 with DBTRG05MG cells; 7.78 with DKMG cells; < 7.00 in the series with GAMG cells; 8.40 in the series with IGR37 cells; < 7.00 with LN229 cells. The negative logarithm of the IC50 (pIC50) was 8.40 in the series with SK-MEL-3 cells; < 7.00 with SW1783 cells; < 7.00 in the series with T98G cells; < 7.00 with U-251MG cells; < 7.00 with YKG1 cells; 7.04 against human full length PDE3A. For the same compound, the CLblood in [1] turned out to be 3 mL/min/kg.
